Here are results for eleven compounds from patent US20020177621A1, “Antifungal fragrance composition” (priority 2000, published 2002).

The structures appear in SMILES notation. Values joined by “and” are separate entries in the source; they are usually repeats but may differ in a detail not shown here. Equal entries are not always repeated. “Also recorded” adds a separate entry of the source.

Holding throughout (assay type): cell-based
Assay [1] concerns Aspergillus niger IFO 9455 (An-1). The experiment in a line: Fragrant vapor antifungal activity (impregnated paper disc on cover of inverted agar plate). To be noted: 72 hours at 27° C.; for IZ: Diameter of growth inhibition zone: 20 μl fragrance (or 40 μl of 50% ethanol solution) on disc, >85 = growth inhibited over entire plate; for SI: Diameter of spore formation inhibition zone / Growth: Growth status outside the inhibition zone: 20 μl fragrance on disc; for Growth: Growth status outside the inhibition zone: compared with control. As for the experimental part: (§1) Physiological saline containing 0.05% Tween-80 was added to a slant on which the test organism grew well, and a spore suspension was produced at 1×10^6 CFU (Colony Forming Units)/ml in accordance with ordinary methods. Potato dextrose agar (PDA: Nissui Pharmaceutical) was used for the medium. To begin with, 10 ml of sterile PDA was pipetted into a Petri dish and after it solidified, another 6 ml of PDA containing 1% of the above described spore suspension was overlaid and solidified to prepare the test agar plate. For the fragrance sample, if the sample is in the form of liquid at ordinary temperatures, 20 μl of liquid was directly impregnated into a paper disc (Advantech, diameter: 8 mm, thick material), while a 50% by weight ethanol solution was prepared for crystals or powder, and 40 μl of that solution was then impregnated into the paper disc.
(§2) The test agar plate was placed inversely, and the paper disc impregnated with the fragrance sample was placed in the center of the cover of the agar plate, followed by incubating for 72 hours at 27° C. Evaluation was made based on the diameter (mm) of the mold growth inhibition zone. When mold growth was inhibited over the entire surface of the agar plate, the diameter of the growth inhibition zone was reported as >85 mm. At locations where mold grew outside the inhibition zone, the diameter of the spore formation inhibition zone and the degree of growth were recorded by comparing with a control. The molds used in the test are shown in Table 1, wherein these molds consist of mold species that are isolated at high frequencies from rooms and bath rooms.
(§3) The amount of blended fragrance added to the paper discs was 20 μl each, and only the diameter of the inhibition zone (mm) is indicated for the results.

Assay [2] has as its system Aureobasidium pullulans IFO 6353 (Ap-1). The assay is described as above. Conditions: 72 hours at 27° C.; for IZ: Diameter of growth inhibition zone: 20 μl fragrance (or 40 μl of 50% ethanol solution) on disc, >85 = growth inhibited over entire plate; for Growth: Growth status outside the inhibition zone: compared with control. Here is the method: as §1, §2, §3
Assay [3] concerns Cladosporium cladosporioides IFO 6348 (Cc-1). Described as above. Conditions: 72 hours at 27° C.; for IZ: Diameter of growth inhibition zone: 20 μl fragrance (or 40 μl of 50% ethanol solution) on disc, >85 = growth inhibited over entire plate; for Growth: Growth status outside the inhibition zone: 20 μl fragrance on disc, compared with control. Here is the method:
as §1, §2, §3

The subject of the next assay is An-1 (Aspergillus niger). The experiment in a line: Confirmation of synergistic action of two fragrances (vapor, paper disc). To be noted: for IZ (diameter of growth inhibition zone) / Growth (growth status outside the inhibition zone) / SI (diameter of spore formation inhibition zone): 72 hours at 27° C.; for IZ (diameter of growth inhibition zone): sample amount on disc: citral 2 μl, benzaldehyde 10 μl, dimethyl tetrahydrobenzaldehyde 20 μl, geraniol 10 μl, octyl aldehyde 20 μl, 9-decen-1-ol 0.5 μl, trans-2-undecenal 3 μl, phenylacetaldehyde 5 μl, A + B = both amounts on one disc; for Growth (growth status outside the inhibition zone): sample amounts as in Table 3 (citral 2 μl, benzaldehyde 10 μl, dimethyl tetrahydrobenzaldehyde 20 μl, geraniol 10 μl, octyl aldehyde 20 μl, 9-decen-1-ol 0.5 μl, trans-2-undecenal 3 μl, phenylacetaldehyde 5 μl; A + B = both); for SI (diameter of spore formation inhibition zone): sample amounts as in Table 3 (citral 2 μl, benzaldehyde 10 μl, dimethyl tetrahydrobenzaldehyde 20 μl, geraniol 10 μl, octyl aldehyde 20 μl, trans-2-undecenal 3 μl, phenylacetaldehyde 5 μl; A + B = both); for Synergistic effect: second fragrance that shows synergistic action with the fragrance component / Antagonistic effect: second fragrance that shows antagonistic action with the fragrance component / Additive effect: second fragrance that shows additive action with the fragrance component: value = combination partner; for Synergistic effect: second fragrance that shows synergistic action with the fragrance component: combined IZ 20 mm or more larger than sum of single IZ; for Antagonistic effect: second fragrance that shows antagonistic action with the fragrance component: combined IZ 20 mm or more smaller than sum of single IZ; for Additive effect: second fragrance that shows additive action with the fragrance component: combined IZ intermediate. As for the experimental part:
An agar plate prepared according to the method of Example 1 was used while using An-1 (Aspergillus niger) for the test fungi. […] 10 μl of the ethanol containing the Table 3 prescribed amount of the fragrance was impregnated into a paper disc. The test agar plate was placed inversely, and the paper disc impregnated with each fragrance alone and a paper disc simultaneously impregnated with two types of fragrances were placed in the center of the cover, followed by incubating for 72 hours at 27° C. and measuring the diameters of the resulting growth inhibition zones.
The results obtained as in Example 2 with other combinations are shown in Tables 4 through 7 as combination examples of respective synergistic, additive and antagonistic actions for each fragrant chemical product (a). […] It should be noted that in order to make the table smaller, combinations that have already been listed once are not listed in other columns of the tables.

Regarding `CCCCCCCC=O` [Octyl aldehyde], in assay [1], the “IZ: Diameter of growth inhibition zone” value is 10 mm, the “SI: Diameter of spore formation inhibition zone” value is listed as over 85 mm and the “Growth: Growth status outside the inhibition zone” value is given as “weak”. The “IZ: Diameter of growth inhibition zone” value in assay [2] is listed as over 85 mm. The “Growth: Growth status outside the inhibition zone” value in assay [2] (20 μl fragrance on disc) is listed as “none”. In assay [3], the “IZ: Diameter of growth inhibition zone” value is given as over 85 mm and the “Growth: Growth status outside the inhibition zone” value is “none”. In the assay on An-1 (Aspergillus niger), the “IZ (diameter of growth inhibition zone)” value is on record as 10 mm, the “Growth (growth status outside the inhibition zone)” value is listed as “weak”, the “SI (diameter of spore formation inhibition zone)” value is on record as 35 mm and the “Synergistic effect: second fragrance that shows synergistic action with the fragrance component” value (“Synergistic effect” below) is given as “Cumin aldehyde”. Moreover, in the assay on An-1 (Aspergillus niger), the “Antagonistic effect: second fragrance that shows antagonistic action with the fragrance component” value (“Antagonistic effect” below) was “Citronellol”; the “Additive effect: second fragrance that shows additive action with the fragrance component” value (shortened to “Additive effect”) was 1-Decanol and Thymol, and Anisaldehyde, and Geraniol,.
Turning to `CCC/C=C/C=O` [Trans-2-hexenal], the “IZ: Diameter of growth inhibition zone” value in assay [1], in assay [2] and in assay [3] was over 85 mm throughout. The “Growth: Growth status outside the inhibition zone” value in assay [1], in assay [2] (20 μl fragrance on disc) and in assay [3] was “none” throughout. In addition, the “Additive effect” value in the assay with An-1 (Aspergillus niger) is “Citral DMA, and 1-Nonanal, and 9-Decen-1-ol”.
For the compound `C=CCCCCCCCCO` [Example 9-Decen-1-ol, 9-Decen-1-ol], in assay [1], the “IZ: Diameter of growth inhibition zone” value is recorded as over 85 mm and the “Growth: Growth status outside the inhibition zone” value is listed as “none”. Further, the “IZ: Diameter of growth inhibition zone” value in assay [2] is recorded as 65 mm. The “Growth: Growth status outside the inhibition zone” value in assay [2] (20 μl fragrance on disc) is given as “weak”. Besides, in assay [3], the “IZ: Diameter of growth inhibition zone” value was over 85 mm and the “Growth: Growth status outside the inhibition zone” value is on record as “none”. In the assay with An-1 (Aspergillus niger), the “IZ (diameter of growth inhibition zone)” value worked out at 0 mm, the “Growth (growth status outside the inhibition zone)” value is given as “weak”, the “Synergistic effect” value is recorded as 1-Decanol and the “Additive effect” value was “Thymol”.
As to `C=CCCCCCCCCC=O` [10-undecen-1-al], the “IZ: Diameter of growth inhibition zone” value in assay [1], in assay [2] and in assay [3] was over 85 mm each time. The figures for the “Growth: Growth status outside the inhibition zone” value in assay [1], in assay [2] (20 μl fragrance on disc) and in assay [3] were “none”, “sparse” and “sparse”, respectively. Besides, the “Additive effect” value in the assay with An-1 (Aspergillus niger) is “Furfural,; also recorded: Geraniol”.
In the case of `O=CCCc1ccccc1` [3-Phenylpropanal], the “IZ: Diameter of growth inhibition zone” value in assay [1], in assay [2] and in assay [3] was over 85 mm in each case. The “Growth: Growth status outside the inhibition zone” value in assay [1], in assay [2] (20 μl fragrance on disc) and in assay [3] was “none” each time. In the assay on An-1 (Aspergillus niger), the “Synergistic effect” value is recorded as “Citral DMA; also recorded: Citral DEA; also recorded: Citronellal; also recorded: Salicylic aldehyde,”. In the assay on An-1 (Aspergillus niger), the “Antagonistic effect” value was “Geraniol”.
For `C=CCc1ccc(O)c(OC)c1` [Eugenol], the entries for the “IZ: Diameter of growth inhibition zone” value in assay [1], in assay [2] and in assay [3] were 40 mm, 40 mm and 70 mm, respectively. Moreover, the “SI: Diameter of spore formation inhibition zone” value in assay [1] and in assay [2] (20 μl fragrance on disc) was 60 mm in each case. In addition, the “Growth: Growth status outside the inhibition zone” value was “good” in assay [1], “good” in assay [2] (20 μl fragrance on disc) and “weak” in assay [3]. Further, in the assay on An-1 (Aspergillus niger), the “Antagonistic effect” value is listed as “Phenylacetaldehyde,; also recorded: Anisaldehyde,”. Further, the “Additive effect” value in the assay on An-1 (Aspergillus niger) is listed as “Thymol”.
As for `CC1=CC(C)C(C=O)CC1` (centres unmarked) [Dimethyl tetrahydrobenzaldehyde, dimethyl tetrahydrobenzaldehyde], in assay [1], the “IZ: Diameter of growth inhibition zone” value is on record as 0 mm and the “Growth: Growth status outside the inhibition zone” value is “weak”. The “IZ: Diameter of growth inhibition zone” value in assay [2] is over 85 mm. Besides, in assay [2] (20 μl fragrance on disc), the “Growth: Growth status outside the inhibition zone” value was “sparse”. Besides, in assay [3], the “IZ: Diameter of growth inhibition zone” value was over 85 mm and the “Growth: Growth status outside the inhibition zone” value is “sparse”. Besides, in the assay on An-1 (Aspergillus niger), the “IZ (diameter of growth inhibition zone)” value worked out at 0 mm, the “Growth (growth status outside the inhibition zone)” value was “weak”, the “SI (diameter of spore formation inhibition zone)” value is listed as over 85 mm and the “Synergistic effect” value is given as “Cumin aldehyde; also recorded: Geraniol”. The “Additive effect” value with An-1 (Aspergillus niger) is “Thymol, and 1-Decanol”.
`CC(C)=CCCC(C)=CC=O` [Citral]: the “IZ: Diameter of growth inhibition zone” value in assay [1], in assay [2] and in assay [3] was over 85 mm in each case. The “Growth: Growth status outside the inhibition zone” value in assay [1], in assay [2] (20 μl fragrance on disc) and in assay [3] was “none” in each case. The “IZ (diameter of growth inhibition zone)” value in the assay with An-1 (Aspergillus niger) is reported as 0 mm. In addition, in the assay on An-1 (Aspergillus niger), the “Growth (growth status outside the inhibition zone)” value is “weak”. In addition, in the assay with An-1 (Aspergillus niger), the “SI (diameter of spore formation inhibition zone)” value came out at 20 mm.
On to `CC(C)c1ccc(C=O)cc1` [Cumin aldehyde], for which the “IZ: Diameter of growth inhibition zone” value in assay [1], in assay [2] and in assay [3] was over 85 mm in each case. Also, the “Growth: Growth status outside the inhibition zone” value in assay [1], in assay [2] (20 μl fragrance on disc) and in assay [3] was “none” throughout. Also, the “Synergistic effect” value with An-1 (Aspergillus niger) is reported as “Citral DEA; also recorded: Geraniol; also recorded: Cinnamic aldehyde DMA,; also recorded: Phenylacetaldehyde; also recorded: Decanol, Anisaldehyde,; also recorded: Citronellol”.
In the case of `O=Cc1ccccc1` [Benzaldehyde], in assay [1], the “IZ: Diameter of growth inhibition zone” value was over 85 mm and the “Growth: Growth status outside the inhibition zone” value is listed as “none”. In addition, in assay [2], the “IZ: Diameter of growth inhibition zone” value was over 85 mm. Further, the “Growth: Growth status outside the inhibition zone” value in assay [2] (20 μl fragrance on disc) is reported as “none”. In assay [3], the “IZ: Diameter of growth inhibition zone” value is given as over 85 mm and the “Growth: Growth status outside the inhibition zone” value is “none”. In the assay on An-1 (Aspergillus niger), the “IZ (diameter of growth inhibition zone)” value is listed as 15 mm, the “Growth (growth status outside the inhibition zone)” value is “slight” and the “SI (diameter of spore formation inhibition zone)” value was over 85 mm.
`CC(C)=CCCC(C)CC=O` (centres unmarked) [Citronellal]: the results for the “IZ: Diameter of growth inhibition zone” value in assay [1], in assay [2] and in assay [3] were 15 mm, over 85 mm and over 85 mm, respectively. Further, the “Growth: Growth status outside the inhibition zone” value in assay [1] was “weak”; in assay [2] (20 μl fragrance on disc), “sparse”; in assay [3] it was “sparse”. In addition, in the assay with An-1 (Aspergillus niger), the “Additive effect” value was “Thymol, and 1-Decanol, and Citronellol”.
